In PubChem BioAssay (NCI):
“And” between values parts separate entries of the source, which are not always exact repeats. Equal values may be shown once.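 Method: 48-hour compound exposure of cells in 96-well plates, five concentrations, linear interpolation of endpoints. GI50 marks 50% less growth. At the TGI there is no net growth.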

Legend:
Experiment in all cases: NCI tumour cell line growth inhibition, 48 h
MDA-MB-435 = test system: MDA-MB-435
OVCAR-5 ovarian = test system: OVCAR-5 ovarian
OVCAR-3 ovarian = test system: OVCAR-3 ovarian
UO-31 renal = test system: UO-31 renal
COLO 205 colon = test system: COLO 205 colon
SNB-19 CNS = test system: SNB-19 CNS
786-0 renal = test system: 786-0 renal
RXF 393 renal = test system: RXF 393 renal
NCI-H460 lung = test system: NCI-H460 lung
HCC-2998 colon = test system: HCC-2998 colon

SMILES | GI50 (MDA-MB-435) | TGI (MDA-MB-435) | GI50 (OVCAR-5 ovarian) [µM] | TGI (OVCAR-5 ovarian) [µM] | GI50 (OVCAR-3 ovarian) | TGI (OVCAR-3 ovarian) [µM] | GI50 (UO-31 renal) | TGI (UO-31 renal) [µM] | GI50 (COLO 205 colon) | TGI (COLO 205 colon) | GI50 (SNB-19 CNS) [µM] | TGI (SNB-19 CNS) [µM] | GI50 (786-0 renal) | TGI (786-0 renal) | GI50 (RXF 393 renal) [µM] | TGI (RXF 393 renal) | GI50 (NCI-H460 lung) [µM] | TGI (NCI-H460 lung) [µM] | GI50 (HCC-2998 colon) | TGI (HCC-2998 colon) [µM]
C=C1C(=O)O[C@H]2[C@H]1CC/C(Cn1cc(-c3ccsc3)nn1)=C\CC[C@@]1(C)O[C@@H]21 | 1.85 µM | 4.54 µM | 2.29 | 7.13 | 1.06 µM | 2.28 | 1.35 µM | 3.18 | 1.45 µM | 3.24 µM | 9.49 | 23.2 | 1.76 µM | 3.96 µM | 1.07 | 2.46 µM | 4.71 | 18.9 | 1.84 µM | 3.42
Cc1ccc2c(c1)-c1oc(=O)c(-c3cc4ccccc4oc3=O)cc1C(O)O2 (stereo not given) | 19.2 µM | 45.6 µM | 20.8 | 49.8 | 22.2 µM | 42.1 | 16.7 µM | 37.3 | 18.7 µM | 41.7 µM | 22.6 | 71 | 20.9 µM | 39.7 µM | 12.8 | 48.2 µM | 22.3 | > 100 | 18.5 µM | 36.2
COc1cccc(NC(=O)c2ccc(NC3=C(Cl)C(=O)N(Cc4ccccc4)C3=O)cc2)c1 | 10.6 µM | 41.4 µM | 27.5 | 65.7 | 3.29 µM | 15.3 | 18.2 µM | 62.6 | 23.7 µM | > 100 µM | 19.1 | 60.1 | 18.3 µM | 33.9 µM | 2.09 | 14.9 µM | 12.3 | 30.4 | 17 µM | 30.6
O=C1CCC(N2C(=O)c3cccc(NCCOCCOCCNC(=O)c4cc5c(o4)C(=O)c4ccccc4C5=O)c3C2=O)C(=O)N1 (stereo not given) | 1.23 µM | 2.63 µM | 1.67 | 3.07 | 0.295 µM | 1.03 | 3.51 µM | 12.6 | 1.98 µM | 3.94 µM | 1.55 | 3.52 | 3.14 µM | 10.9 µM | 1.67 | 3.21 µM | 1.97 | 3.87 | 1.89 µM | 3.57
C[C@H](C(O)CC(=O)C(C)(C)O)[C@H]1CC[C@@]2(C)[C@@H]3CC[C@H]4C(C)(C)[C@@H](OC5OC(COC6OC(CO)C(O)C(O)C6O)C(O)C(O)C5O)CC[C@]4(C)C3=CC[C@]12C (stereo not given in full) |  | > 100 µM |  | > 100 |  | > 100 |  | > 100 |  | > 100 µM |  | > 100 |  | > 100 µM |  | > 100 µM |  | > 100 |  | > 100
CCOC(=O)C(=O)C(/C(=N/N(C)C)C(=O)Nc1ccc(C)cc1C)c1nc2ccccc2[nH]c1=O (stereo not given) |  | > 100 µM |  | > 100 |  | > 100 |  | > 100 |  |  |  | > 100 |  | > 100 µM |  | > 100 µM |  | > 100 |  | > 100
CC(C)=CCc1c(O)c(C(=O)CC(C)C)c(O)c2c(-c3ccccc3)cc(=O)oc12 | 11.8 µM | > 50 µM |  |  | 4.33 µM | > 50 | 8.85 µM | > 50 | 9.75 µM | 19 µM | 10.3 | > 50 | 10.7 µM | > 50 µM | 15.8 | > 50 µM | 8.03 | > 50 | 11.7 µM | > 50
C[C@@]1(O)CCC[C@H]1n1c(=O)c(C(F)F)cc2cnc(NC3CCN(S(C)(=O)=O)CC3)nc21 | 1.4 µM | 9.01 µM | 1.21 | > 100 |  |  | 1.2 µM | 3.97 |  |  | 1.34 | 16.8 | 1.9 µM | > 100 µM | 1.24 | 2.9 µM | 0.109 | 11.9 | 0.539 µM | > 100
CN(C)C1C(=O)C(C(N)=O)=C(O)C2(O)C(=O)C3=C(O)c4c(O)cccc4C(C)(O)C3CC12 (stereo not given) | 21 µM and > 100 µM | 36.8 µM and > 100 µM |  | > 100 | 44.5 µM and > 100 µM | > 100 | 41.9 µM and > 100 µM | > 100 | 25.7 µM and > 100 µM | 72.2 µM and > 100 µM |  |  | 26.1 µM and > 100 µM | 63.8 µM and > 100 µM |  | 87.5 µM and > 100 µM |  | > 100 | > 100 µM and 42.7 µM | > 100
CCC(=O)Nc1ncnc2ncn(C(=O)CC)c12 |  | > 100 µM |  | > 100 |  | > 100 |  | > 100 |  |  |  | > 100 |  | > 100 µM |  | > 100 µM |  | > 100 |  | > 100
O=C(Nc1ccc(N2CCNCC2)cn1)c1[nH]ncc1Nc1ncnc2sccc12 | 1.59 µM | 3.12 µM | 2.08 | 5.19 | 2.02 µM | 4.38 | 14.4 µM | 32 | 1.72 µM | 3.88 µM |  |  | 1.62 µM | 3.23 µM | 3.32 | 18.8 µM | 1.73 | 3.57 | 12.7 µM | 32.1
